Assay: logP(acid) by reverse phase (C18) chromatography at pH 2.3
Assay type: physicochemical
Settings: pH 2.3

| Structure (SMILES) | chromatographic logP |
| --- | --- |
| Cc1nc(Cn2cc(C(F)(F)C(F)(F)F)c(C(F)(F)C(F)(F)F)n2)ccc1N [SYNTHESIS EXAMPLE 82-2] | 2.64 |
| Cc1cc(Cn2nc(C(F)(F)F)nc2C(F)(F)F)ncc1[N+](=O)[O-] [SYNTHESIS EXAMPLE 69-1] | 3.38 |
| Cc1nc(Cn2nc(C(F)(F)C(F)(F)F)cc2C(F)(F)C(F)(F)F)ccc1N [SYNTHESIS EXAMPLE 81-2] | 2.83 |

Same assay, conditions: reverse phase (C18) chromatography at pH 2.3

| Structure (SMILES) | logP (acid) |
| --- | --- |
| COc1ccc(Br)c(C(=O)Nc2ccc(Cn3nc(C(F)(F)C(F)(F)F)nc3C(F)(F)F)cc2C)c1C(=O)N[C@@H](C)CSC [11-38] | logP (acid) 4.14 |
| CSC[C@H](C)NC(=O)c1c(I)ccc(F)c1C(=O)Nc1ccc(Cn2nc(C(F)(F)F)cc2C(F)(F)F)nc1C [11-1] | logP (acid) 3.72 |
| Cc1cc(Cn2nc(C(F)(F)C(F)(F)F)nc2C(F)(F)F)ccc1NC(=O)c1c(Cl)ccc(Cl)c1C(=O)N[C@@H](C)CS(C)(=O)=O [11-29] | logP (acid) 3.50 |
| Cc1nc(Cn2nc(C(F)(F)C(F)(F)F)cc2C(F)(F)F)ccc1NC(=O)c1cccc(Br)c1C(=O)N[C@@H](C)CS(C)(=O)=O [13-187] | logP (acid) 3.19 |
| Cc1nc(Cn2nc(C(F)(F)F)cc2C(F)(F)F)ccc1NC(=O)c1c(Cl)ccc(Cl)c1C(=O)N[C@@H](C)C[S+](C)[O-] (some centres unmarked) [11-5] | logP (acid) 2.65 |
| CNC(=O)c1cc(Cl)cc(Cl)c1C(=O)Nc1ccc(Cn2nc(C(F)(F)F)cc2C(F)(F)F)cc1C [12-1] | logP (acid) 3.69 |
| Cc1nc(Cn2nc(C(F)(F)C(F)(F)F)cc2C(F)(F)F)ccc1NC(=O)c1cccc(I)c1C(=O)NC(C)C[S+](C)[O-] (mixture of isomers) [13-190] | logP (acid) 2.76 |
| CSC[C@H](C)NC(=O)c1c(Br)cccc1C(=O)Nc1ccc(Cn2nc(C(F)F)c(Cl)c2C(F)F)nc1C [13-126] | logP (acid) 3.28 |
| Cc1nc(Cn2nc(C(F)(F)C(F)(F)F)cc2C(F)(F)F)ccc1NC(=O)c1cccc(Cl)c1C(=O)N[C@@H](C)CS(C)(=O)=O [13-186] | logP (acid) 3.12 |
| Cc1cc(Cn2nc(C(F)(F)F)cc2C(F)(F)F)ncc1NC(=O)c1cccc(I)c1C(=O)NC(C)C[S+](C)[O-] (mixture of isomers) [13-182] | logP (acid) 2.3 |
| CSC[C@H](C)NC(=O)c1c(I)cccc1C(=O)Nc1ccc(Cn2cc(C(F)(F)C(F)(F)F)c(C(F)(F)C(F)(F)F)n2)nc1C [13-156] | logP (acid) 4.46 |
| CSC[C@H](C)NC(=O)c1c(Cl)ccc(Br)c1C(=O)Nc1ccc(Cn2nc(C(F)(F)F)cc2C(F)(F)F)nc1C [11-13] | logP (acid) 3.89 |
| CSC[C@H](C)NC(=O)c1c(Cl)cccc1C(=O)Nc1ccc(Cn2nc(C(F)F)c(Br)c2C(F)F)nc1C [13-28] | 3.20 |
| CSC[C@H](C)NC(=O)c1c(Cl)cc(Cl)cc1C(=O)Nc1ccc(Cn2nc(C(F)(F)C(F)(F)F)nc2C(F)(F)F)cc1C [10-10] | logP (acid) 4.64 |
| CSC[C@H](C)NC(=O)c1c(Cl)ccc(Cl)c1C(=O)Nc1ccc(Cn2nc(C(F)(F)F)nc2C(F)(F)F)cc1C [11-26] | logP (acid) 4.25 |
| CSC[C@H](C)NC(=O)c1c(I)cccc1C(=O)Nc1cnc(Cn2nc(C(F)(F)F)cc2C(F)(F)F)cc1C [13-181] | logP (acid) 3.67 |

Same assay, conditions: reverse phase (C18) chromatography at pH2.3, 0.1% phosphoric acid aqueous solution / acetonitrile, linear gradient 10-95% acetonitrile

| Structure (SMILES) | logP (acid) |
| --- | --- |
| Cc1cc(Cn2nc(C(F)(F)F)nc2C(F)(F)F)c(F)cc1NC(=O)c1cccc(Cl)c1C(=O)N[C@@H](C)CS(C)(=O)=O [7-9] | logP (acid) 3.02 |
| CSC[C@H](C)NC(=O)c1c(Br)cccc1C(=O)Nc1cc(F)c(Cn2nc(C(F)(F)F)nc2C(F)(F)F)cc1C [7-13] | logP (acid) 4.07 |
| CSC[C@H](C)NC(=O)c1c(Br)cccc1C(=O)Nc1cc(F)c(Cn2nc(C(F)(F)F)cc2C(F)(F)F)cc1C [7-10] | logP (acid) 4.37 |

Same assay, conditions: reverse phase (C18) chromatography column, pH 2.3; reverse phase (C18) chromatography, pH2.3, 0.1% phosphoric acid / acetonitrile gradient 10-95%; read-out: logP (acid)

| Structure (SMILES) | chromatographic logP |
| --- | --- |
| Cc1nc(Cn2nnc(C(F)(F)F)n2)ccc1N [SYNTHESIS EXAMPLE 85-2] | 1.18 |
| Cc1cc(Cn2nc(C(F)(F)F)cc2C(F)(F)F)ncc1[N+](=O)[O-] [SYNTHESIS EXAMPLE 68-2] | 3.64 |
| Cc1cc(COS(C)(=O)=O)ncc1[N+](=O)[O-] [SYNTHESIS EXAMPLE 68-1] | 1.49 |

Same assay, conditions: reverse phase (C18) chromatography, pH 2.3

| Structure (SMILES) | logP (acid) |
| --- | --- |
| Cc1cc(Cn2nc(C(F)(F)C(F)(F)F)n(C(F)F)c2=O)ccc1NC(=O)c1cccc(Cl)c1C(=O)N[C@@H](C)CS(C)(=O)=O [14-330] | logP (acid) 2.85 |
| CSC[C@H](C)NC(=O)c1c(Cl)cccc1C(=O)Nc1ccc(Cn2nnc(C(F)(F)F)n2)nc1C [14-306] | logP (acid) 2.91 |
| CO/N=C(\C)CC(C)NC(=O)c1c(Br)cccc1C(=O)Nc1ccc(Cn2nc(C(F)(F)C(F)(F)F)nc2C(F)(F)F)cc1C (centres unmarked) [14-363] | logP (acid) 4.03 |
| CSC[C@H](C)NC(=O)c1c(I)cccc1C(=O)Nc1cnc(Cn2nc(C(F)(F)F)nc2C(F)(F)F)cc1C [14-274] | logP (acid) 3.44 |
| CSC[C@H](C)NC(=O)c1c(Cl)cccc1C(=O)Nc1ccc(Cn2cc(C(=O)C(F)(F)C(F)(F)F)c(C(F)(F)C(F)(F)F)n2)cc1C [13-205] | logP (acid) 4.46 |
| CSC[C@H](C)NC(=O)c1c(C(=O)Nc2ccc(Cn3nc(C(F)(F)F)nc3C(F)(F)F)cc2C)cccc1S(=O)(=O)N(C)C [14-414] | logP (acid) 3.54 |
| CSC[C@H](C)NC(=O)c1c(Cl)cccc1C(=O)Nc1ccc(Cn2nc(C(F)(F)F)nc2NC(=O)C(F)(F)F)cc1C [14-353] | logP (acid) 3.11 |
| Cc1nc(Cn2nc(C(F)(F)C(F)(F)F)nc2C(F)(F)F)ccc1NC(=O)c1cccc(S(C)(=O)=O)c1C(=O)N[C@@H](C)C[S+](C)[O-] (some centres unmarked) [14-394] | logP (acid) 2.39 |
| CSCC(C)NC(=O)c1c(Cl)cccc1C(=O)Nc1ccc(Cn2cc(C3=NOC(c4cc(Cl)cc(Cl)c4)(C(F)(F)F)C3)c(C(F)(F)F)n2)cc1C (mixture of isomers) [13-201] | logP (acid) 3.43 |
| CSC[C@H](C)NC(=O)c1c(Br)cccc1C(=O)Nc1cnc(Cn2nc(C(F)(F)F)nc2C(F)(F)F)cc1C [14-271] | logP (acid) 3.37 |
| Cc1nc(Cn2nc(C(F)(F)F)nc2C(F)(F)F)ccc1NC(=O)c1cccc(S(=O)(=O)N(C)C)c1C(=O)N[C@@H](C)C[S+](C)[O-] (some centres unmarked) [14-367] | logP (acid) 2.25 |
| Cc1cc(Cn2nc(C(F)(F)F)cc2C(F)(F)F)ccc1NC(=O)c1c(Cl)cccc1C(=O)NCC#N [13-198] | logP (acid) 3.32 |
| CSC[C@H](C)NC(=O)c1c(C(=O)Nc2ccc(Cn3nc(C(F)(F)F)nc3C(F)(F)F)nc2C)cccc1S(=O)(=O)N(C)C [14-365] | logP (acid) 3.30 |
| CSC[C@H](C)NC(=O)c1c(Br)cccc1C(=O)Nc1ccc(Cn2cnc(C(F)(F)C(F)F)n2)nc1C [14-302] | logP (acid) 2.48 |
| Cc1cc(Cn2nnc(-c3ccc(C(F)(F)F)cc3)n2)ccc1NC(=O)c1cccc(Cl)c1C(=O)N[C@@H](C)CS(C)(=O)=O [14-349] | logP (acid) 3.23 |
| Cc1nc(Cn2c(C(F)(F)F)nc(Cl)c2Cl)ccc1NC(=O)c1cccc(Cl)c1C(=O)N[C@@H](C)C[S+](C)[O-] (some centres unmarked) [13-363] | logP (acid) 2.17 |
| CSC[C@H](C)NC(=O)c1c(Cl)cccc1C(=O)Nc1ccc(Cn2cnc(C(F)(F)C(F)(F)C(F)(F)F)n2)nc1C [14-310] | logP (acid) 3.16 |
| CSC[C@H](C)NC(=O)c1c(Cl)cccc1C(=O)Nc1ccc(Cn2nc(C(F)(F)C(F)(F)F)n(N)c2=O)cc1C [14-421] | logP (acid) 2.79 |
| CSC[C@H](C)NC(=O)c1c(C(=O)Nc2ccc(Cn3nc(C(F)(F)C(F)(F)F)nc3C(F)(F)F)nc2C)cccc1S(C)(=O)=O [14-393] | logP (acid) 3.34 |
| CCOC(=O)c1cn(Cc2ccc(NC(=O)c3cccc(Cl)c3C(=O)N[C@@H](C)CSC)c(C)c2)nc1C(F)(F)F [13-202] | logP (acid) 3.43 |
| CSC[C@H](C)NC(=O)c1c(SC)cccc1C(=O)Nc1ccc(Cn2nc(C(F)(F)C(F)(F)F)cc2C(F)(F)C(F)(F)F)nc1C [13-342] | logP (acid) 4.45 |
| Cc1nc(Cn2c(C(F)(F)F)nc(Cl)c2Cl)ccc1NC(=O)c1cccc(Cl)c1C(=O)N[C@@H](C)CS(C)(=O)=O [13-364] | logP (acid) 2.59 |
| CSc1cccc(C(=O)Nc2ccc(Cn3nc(C(F)(F)C(F)(F)F)cc3C(F)(F)F)nc2C)c1C(=O)N[C@@H](C)C[S+](C)[O-] (some centres unmarked) [13-343] | logP (acid) 2.78 |
| Cc1nc(Cn2nc(C(F)(F)F)nc2C(F)(F)F)ccc1NC(=O)c1cccc(S(C)(=O)=O)c1C(=O)N[C@@H](C)CS(C)(=O)=O [14-368] | logP (acid) 2.43 |

Same assay, conditions: reverse phase (C18) chromatography, pH2.3, 0.1% phosphoric acid aqueous solution / acetonitrile, linear gradient 10-95% acetonitrile

| Structure (SMILES) | logP (acid) |
| --- | --- |
| CSC[C@H](C)NC(=O)c1c(C(=O)Nc2ccc(Cn3nc(C(F)(F)F)cc3C(F)(F)F)nc2C)ccc(C(F)(F)F)c1Cl [9-26] | logP (acid) 4.25 |
| CSC[C@H](C)NC(=O)c1c(C(=O)Nc2ccc(Cn3nc(C(F)(F)C(F)(F)F)nc3C(F)(F)F)cc2C)ccc(F)c1Br [9-12] | logP (acid) 4.29 |
| Cc1cc(Cn2nc(C(F)(F)F)nc2C(F)(F)F)ccc1NC(=O)c1ccc(C(F)(F)F)c(Cl)c1C(=O)N[C@@H](C)C[S+](C)[O-] (some centres unmarked) [9-19] | logP (acid) 2.98 |
| CSC[C@H](C)NC(=O)c1c(C(=O)Nc2ccc(Cn3nc(C(F)(F)C(F)(F)F)nc3C(F)(F)F)cc2C)ccc(C(F)(F)F)c1Cl [9-23] | logP (acid) 4.63 |

Reference: patent US20110184188A1, “Insecticidal Benzenedicarboxamide Derivative” (priority 2008, published 2011)
